The structures appear in SMILES notation.

The subject of one test is pERK. The test can be described thus: Phosphoprotein kinetic profiles in bone marrow samples from healthy donors. It is filed as cell-based, human. Conditions: 100 μM U0126 pre-incubation; healthy donor CD34^+, CD117^+ cells. On the procedure: (§1) Phosphoprotein kinetic profiles were analyzed in bone marrow aspiration samples from nine healthy, adult donors (i.e., normal bone marrow or NBM) and from five AML patients. Samples from healthy donors included 5 males and 4 females, ranging in age from 26 to 49 years. Approximately 10 to 20 mL of bone marrow (BM) samples were collected from the posterior iliac crest of the volunteers using IRB approved protocols. The BM samples were filtered using a 40 μm Nylon cell strainer to remove marrow particles and the white blood cell concentration determined using a blood analyzer. […] The samples were immediately used for subsequent experimentation.
(§2) To assess the signal transduction response after growth factor simulation, 100 to 200 μL of processed samples including about 2×10^6 WBC/100 μL were added to tubes and incubated at 37° C. for 30 minutes. For inhibition experiments, cells were incubated with 100 μM U0126, 1 μg/mL rapamycin, or both for at least 20 minutes prior to cytokine addition and in all cases for 30 min prior to formaldehyde addition. […] After stimulation the cells were immediately fixed by the addition of formaldehyde to a final concentration of 4% v/v and incubated for 10 minutes at room temperature. Following fixation, red blood cells were lysed by the addition of TRITON-X/PBS solution (0.1% v/v final concentration Triton X-100) supplemented with a 1 x phosphatase inhibitor cocktail (PIC; final concentrations: 0.2 mM sodium orthovanadate, 2 mM sodium pyrophosphate decahydrate, 2 mM [3-glycerophosphate, and 10 mM sodium fluoride) and incubation at 37° C. for 20 minutes. The incubated solution was chilled by the addition of ice-cold Wash Buffer (final concentration 1×PBS and either 4% bovine serum albumin (BSA) or 4% heat-inactivated fetal bovine serum (FBS), supplemented with 1×PIC), and the samples were centrifuged at 300 g for 6 minutes at 4° C.). If the lysis was incomplete, samples were retreated with 0.1% Triton X-100 at 37° C. for 10 to 20 minutes. After removal of the supernatant, cells were washed twice in ice-cold Wash Buffer supplemented with 1×PIC and permeabilized by the addition of pre-chilled 80% methanol while simultaneously vortexing the tube and incubated on ice for 10 minutes. Methanol was removed by centrifugation, the pellet was washed with ice-cold 1×PBS, and non-specific binding was blocked by the addition of ice-cold Wash Buffer supplemented with 1×PIC and incubation at 4° C. for a minimum of 30 minutes.
(§3) To stain cells with fluorescent conjugated monoclonal antibodies, the incubated solution was centrifuged to remove the supernatant and the pellet was incubated for 60 minutes at 4° C. with an antibody staining solution including 0.25 μg to 0.50 μg of pS6-Pacific Blue, pERK-ALEXA 488, pSTAT5-ALEXA 647, CD34-PE, CD45-PerCP, and CD117-PC7. Samples were washed three times with ice-cold Wash Buffer supplemented with 1×PIC, resuspended in 0.5 mL ice-cold Wash Buffer supplemented with 1×PIC including 0.5 μg/mL DAPI, and analyzed by flow cytometryusing a BD LSR II Flow Cytometer, equipped with a High Throughput Sampler (HTS).
(§4) First, doublets, aggregates, and debris were excluded by gating on single cell events in the SSC-Area versus SSC-Height histogram. Then, in events passing through this gate, debris near the origin of the FSC-Area versus SSC-Area plot (gray in FIG. 4A) was excluded by drawing a gate around an area encompassing, primarily, lymphocytes, monocytes, and granulocytes (LMG, black in FIG. 4A). Next, in cells passing through the LMG gate, the blast region (circle in FIG. 4B) was identified in the CD45 versus SSC-Area histogram (FIG. 4B). From this blast population, CD34+, CD117+ cells were identified in the CD34 versus CD117 plot (boxed area in FIG. 4C).

For a further test, the system named is pS6. The description is as above. It is filed as cell-based, human. The note with it: at 4 min; 100 μM U0126. On the procedure:
as §1, §2, §3, §4

As to `N#CC(=C(/N)Sc1ccccc1N)/C(C#N)=C(\N)Sc1ccccc1N` [U0126, reference compound], in the test with pERK, the “Inhibition of SCF-stimulated ERK phosphorylation” value is reported as “completely inhibited”. Also, the “Inhibition of SCF-stimulated S6 phosphorylation” value in the test with pS6 is “partially blocked”.
